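Values below derive from 48-hour exposures of cells grown in 96-well plates, with endpoints linearly interpolated between the two concentrations bracketing the appropriate inhibition level. GI50 marks 50% less growth. TGI: concentration producing complete growth inhibition.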
What was measured:
Test in all cases: NCI tumour cell line growth inhibition, 48 h
786-0 renal = system: 786-0 renal
DU-145 prostate = system: DU-145 prostate
HCT-116 colon = system: HCT-116 colon
HOP-62 NSCLC = system: HOP-62 NSCLC
RPMI-8226 leukemia = system: RPMI-8226 leukemia
SF-539 CNS = system: SF-539 CNS
SNB-75 CNS = system: SNB-75 CNS
TK-10 renal = system: TK-10 renal
LOX IMVI melanoma = system: LOX IMVI melanoma
MALME-3M melanoma = system: MALME-3M melanoma

| SMILES | TGI (786-0 renal) | TGI (DU-145 prostate) | TGI (HCT-116 colon) | TGI (HOP-62 NSCLC) | TGI (RPMI-8226 leukemia) | TGI (SF-539 CNS) | TGI (SNB-75 CNS) | TGI (TK-10 renal) | TGI (LOX IMVI melanoma) | TGI (MALME-3M melanoma) | GI50 (DU-145 prostate) | GI50 (HCT-116 colon) | GI50 (HOP-62 NSCLC) | GI50 (LOX IMVI melanoma) | GI50 (MALME-3M melanoma) | GI50 (RPMI-8226 leukemia) | GI50 (SF-539 CNS) | GI50 (SNB-75 CNS) | GI50 (TK-10 renal) |
| --- | --- | --- | --- | --- | --- | --- | --- | --- | --- | --- | --- | --- | --- | --- | --- | --- | --- | --- | --- |
| CN(C)c1nncc2[nH]cnc12 | > 100 µM | > 100 µM | > 100 µM | > 100 µM | > 100 µM | > 100 µM | > 100 µM | > 100 µM |  |  |  |  |  |  |  |  |  |  |  |
| Cc1ccc(OC2CC(n3cnc4ncnc(Cl)c43)OC2Oc2ccc(C)cc2)cc1 (stereo not given) | > 100 µM | 53.2 µM | > 100 µM | 90.2 µM |  | 31.5 µM | 69.1 µM | > 100 µM | > 100 µM | > 100 µM |  |  |  |  |  |  |  |  |  |
| N#C/C(=C\NC(=S)c1ccncc1)c1nc2ccccc2s1 | > 100 µM | > 100 µM | > 100 µM | > 100 µM | > 100 µM | > 100 µM | > 100 µM | > 100 µM | > 100 µM |  |  |  |  |  |  |  |  |  |  |
| Cc1ccc(O)c(-c2cc(-c3cccc(Cl)c3)c(C#N)c(N)n2)c1 | 46 µM | > 100 µM | 30.1 µM | 48.2 µM | 48.4 µM | 52 µM |  | 44.6 µM | 30.8 µM | 58.1 µM |  |  |  |  |  |  |  |  |  |
| CC(=C(C(N)=O)C(N)=O)C1C=C(c2cccs2)CC(c2ccc(Cl)cc2)=C1O (stereo not given) | > 100 µM | > 100 µM | > 100 µM | > 100 µM | > 100 µM |  | > 100 µM | > 100 µM | 40.4 µM |  |  |  |  |  |  |  |  |  |  |
| O=C1/C(=C/c2ccc(Cl)cc2)N=C(c2ccccc2)N1CCc1cccs1 |  | > 100 µM | > 100 µM | > 100 µM | 83.4 µM | > 100 µM | > 100 µM | > 100 µM | > 100 µM | > 100 µM | 42.7 µM | 6.65 µM | 47.3 µM | 8.52 µM | 35.1 µM | 14.5 µM | 48.2 µM | 50.9 µM | 27.9 µM |
| Cc1cccnc1/N=C/c1c(O)n(C)c(=O)[nH]c1=O | > 100 µM | > 100 µM | > 100 µM | > 100 µM |  | > 100 µM | > 100 µM | > 100 µM | > 100 µM | 87.7 µM |  |  |  |  |  |  |  |  |  |
| CC1OC2(CC(OCc3ccccc3)C1OCc1ccccc1)OCCO2 (stereo not given) | > 100 µM | > 100 µM | > 100 µM | > 100 µM | > 100 µM | > 100 µM |  | > 100 µM | > 100 µM | > 100 µM |  |  |  |  |  |  |  |  |  |
| CSCCCNC(=O)c1csc(-c2csc(C(CNC(=O)OC(C)(C)C)CNC(=O)OC(C)(C)C)n2)n1 | > 100 µM | > 100 µM | > 100 µM | > 100 µM | 41.7 µM | > 100 µM | > 100 µM | > 100 µM | > 100 µM |  |  |  |  |  |  |  |  |  |  |
| COC(=O)/C=C/c1ccc2c(c1)CC1(C2)Cc2cc3c(cc2C1=O)CCC3 (stereo not given) | 68.7 µM | > 100 µM | > 100 µM |  | > 100 µM | > 100 µM | 71.3 µM | > 100 µM | > 100 µM | > 100 µM |  |  |  |  |  |  |  |  |  |
| Nc1nc(N)c2ncn(Cc3ccccc3CCl)c2n1 | > 100 µM | > 100 µM | > 100 µM | > 100 µM | > 100 µM | > 100 µM | > 100 µM | > 100 µM |  | > 100 µM |  |  |  |  |  |  |  |  |  |
| N=c1c2c(-c3ccccc3)c[nH]c2ncn1N | > 100 µM |  | > 100 µM | > 100 µM | > 100 µM | > 100 µM | > 100 µM | > 100 µM | > 100 µM |  |  |  |  |  |  |  |  |  |  |
| CCCCNC(=S)Nc1nc(C(=O)NNC(=S)NC2CCCCC2)cs1 | > 100 µM | > 100 µM | > 100 µM | > 100 µM | > 100 µM | > 100 µM |  | > 100 µM | > 100 µM | > 100 µM |  |  |  |  |  |  |  |  |  |
| CCCCCCCCCCCCCC[S+](C)C | 2.61 µM | > 10 µM | > 10 µM | 3.87 µM | 2.65 µM | 2.79 µM | 3.51 µM | 3.75 µM | 4.34 µM |  |  |  |  |  |  |  |  |  |  |
| CC(=O)OC(CCC1(C)OC1COc1ccc(CCNC(=O)c2ccccc2)cc1)C(C)(C)OC(C)=O (stereo not given) | > 100 µM |  | 45.5 µM | > 100 µM | > 100 µM | > 100 µM | > 100 µM | > 100 µM | > 100 µM | 80.1 µM |  |  |  |  |  |  |  |  |  |
| N#C/C(=C\c1cc(Cl)cc(Cl)c1)c1ccccn1 | > 100 µM | > 100 µM | > 100 µM | > 100 µM | > 100 µM | > 100 µM | 36 µM | > 100 µM |  | > 100 µM |  |  |  |  |  |  |  |  |  |
| CC1OC(O[C@H]2C3C=CO[C@@H](OC4OC(CO)C(O)C(O)C4O)C3[C@@]3(COC(=O)/C=C/c4ccc(O)cc4)O[C@@H]23)C(O)C(O)C1O (stereo not given in full) | > 100 µM | > 100 µM | > 100 µM | > 100 µM | > 100 µM |  | > 100 µM | > 100 µM | > 100 µM | > 100 µM |  |  |  |  |  |  |  |  |  |
| N#CCCN(CCC#N)c1ccc(/C=C2\N=C(c3ccccc3)N(NC(N)=S)C2=O)cc1 | > 100 µM | > 100 µM | > 100 µM | > 100 µM | > 100 µM | > 100 µM |  | > 100 µM | > 100 µM | > 100 µM |  |  |  |  |  |  |  |  |  |
| O=c1[nH]c(=O)n(C2CC(O)C(CO)O2)cc1C1=NC1 (stereo not given) | > 100 µM | > 100 µM | > 100 µM | > 100 µM | > 100 µM | > 100 µM | > 100 µM | > 100 µM |  |  |  |  |  |  |  |  |  |  |  |
| COc1ccc(OC)c(CC2CCc3nc(N)nc(N)c3C2)c1 (stereo not given) | 4.46 µM |  | > 100 µM | 24.4 µM | > 100 µM | 22.6 µM | 27.2 µM | > 94 µM | 25.6 µM | 24.2 µM |  |  |  |  |  |  |  |  |  |
| O=C(O)c1cnc2[nH]ccn2c1=O | > 100 µM | > 100 µM | > 100 µM | > 100 µM | > 100 µM |  | > 100 µM | > 100 µM |  | > 100 µM |  |  |  |  |  |  |  |  |  |
| CCOC(=O)Cc1nc2sc(S(N)(=O)=O)nn2c1Br | 52.1 µM | > 100 µM | 96.5 µM | > 100 µM | 73.5 µM |  | > 100 µM | > 100 µM | 44.3 µM | 81.7 µM |  |  |  |  |  |  |  |  |  |
| O=C1CCC(=O)N1n1c(Cc2ccc(Cl)cc2)n[nH]c1=O | > 100 µM | > 100 µM | > 100 µM |  | > 100 µM | > 100 µM |  | > 100 µM | > 100 µM | > 100 µM |  |  |  |  |  |  |  |  |  |

Source: PubChem BioAssay (NCI)
